What is called GI50 is the concentration giving 50% growth inhibition. The low end stands for more potent growth inhibition, the high end for less potent growth inhibition.

The text below walks through data of US20260062422A1 (Halda Therapeutics OpCo, Inc., priority 2022, published 2026).

In the test the test system is T47D cells. Put plainly: Cellular growth inhibition assay for T47D cells, CellTiter-Glo. Format: cell-based, human. The note with it: 72 hours treatment, CellTiter-Glo 2.0 cell viability. The method, then: T47D cells were purchased from American Type Cell Culture (ATCC Cat #HTB-133) and then seeded on poly-D-lysine coated, black clear-bottom 384-well plates at 3000/well in 25 μL Dulbecco's Modified Eagle Medium (DMEM) supplemented with 10% w/w Fetal bovine serum (FBS), 0.2 units/mL recombinant human insulin (Gibco Cat #12585014), and 1% w/w Pen-Strep. Pen-Strep is a commercially available mixture of penicillin G and streptomycin, which is used in mammalian cell culture media to prevent bacterial contamination. Dulbecco's Modified Eagle Medium (DMEM) supplemented with 10% w/w fetal bovine serum (FBS), 0.2 units/mL recombinant human insulin, and 1% w/w Pen-Strep is herein referred to as Treatment Medium. Following seeding of cells in the plates, the plates were spun at 300×g for 30 seconds, then equilibrated to room temperature for 30 minutes, and then deposited in a humidified tissue culture incubator maintained at 37° C. with 5% CO2.
At 24 hours after seeding of the cells, dilutions of test compound were prepared in DMSO and dissolved in Treatment Medium, to achieve a final DMSO concentration of 0.5% w/w, thereby providing the Test Compound Solution. A 25 μL aliquot of the Test Compound Solution was added to cells in the well plates. An equal volume of a solution containing DMSO and Treatment Medium was used as a negative control. Following treatment of cells with Test Compound Solution or said equal volume of a solution containing DMSO and Treatment Medium, the plates were spun at 300×g for 30 seconds, and then left in an incubator for 72 hours.
At the end of the treatment duration, cell viability was quantified with CellTiter-Glo 2.0 reagent (Promega Cat #G9243). For this purpose, plates were equilibrated to room temperature for 30 minutes, and then 25 μL of CellTiter-Glo 2.0 reagent was added to cells in the plate wells. Plates were then agitated on a shaker for two minutes at 500 rpm and subsequently incubated at room temperature for 10 minutes. Following incubation, the plates were spun at 3000×g for 30 seconds, then sealed with an optical adhesive cover, and luminescence readings were measured with an EnVision Plate Reader (Perkin Elmer).
Data was normalized using zero luminescence for baseline. A four-parameter non-linear regression curve fit was applied to dose-response data in GraphPad Prism data analysis software to determine the half-maximal growth inhibitory concentration (GI50) for each test compound.
On the technique in general: ATP-based viability assays read luminescence as a measure of living cells.

Structures are written as SMILES.

With `Cc1sc2c(c1C)C(c1ccc(C#CC3CC4(CCCN(c5ncc(C(=O)N[C@H]6C(C)(C)[C@H](Oc7ccc(C#N)c(Cl)c7)C6(C)C)cn5)C4)C3)cc1)=NC1(CC1)c1nnc(C)n1-2` [Compound I-486], the 50% growth inhibitory concentration (GI50) (Homo sapiens, T47D, 72 h) was > 3000 nM.
With `Cc1sc2c(c1C)C(c1ccc(C#CC3CC4(CCCN(c5ncc(C(=O)N[C@H]6C(C)(C)[C@H](Oc7ccc(C#N)c(Cl)c7)C6(C)C)cn5)C4)C3)cc1)=NC1(CC1)c1nnc(C)n1-2` [Compound I-487], the GI50 was > 3000 nM.
In the case of `Cc1sc2c(c1C)C(c1ccc(CC3CC(C4CCCN(c5ncc(C(=O)N[C@H]6C(C)(C)[C@H](Oc7ccc(C#N)c(Cl)c7)C6(C)C)cn5)C4)C3)cc1)=N[C@@H](C)c1nnc(C)n1-2` (some centres unmarked) [Compound I-488], the GI50 (Homo sapiens, T47D, 72 h) was < 500 nM.
As for `Cc1sc2c(c1C)C(c1ccc(CC3CC(C4CCCN(c5ncc(C(=O)N[C@H]6C(C)(C)[C@H](Oc7ccc(C#N)c(Cl)c7)C6(C)C)cn5)C4)C3)cc1)=N[C@@H](C)c1nnc(C)n1-2` (some centres unmarked) [Compound I-489], the GI50 was < 500 nM.
For `Cc1sc2c(c1C)C(c1ccc(N3CC(C4CCN(c5cnc(C(=O)N[C@H]6C(C)(C)[C@H](Oc7ccc(C#N)c(Cl)c7)C6(C)C)cn5)CC4)C3)cc1)=N[C@@H](C)c1nnc(C)n1-2` [Compound I-490], for the setting “Homo sapiens, T47D, 72 h”, the GI50 lay within 500 to 1500 nM.
In the case of `Cc1sc2c(c1C)C(c1ccc([C@H]3C[C@@H]3CC3CCCN(c4ncc(C(=O)N[C@H]5C(C)(C)[C@H](Oc6ccc(C#N)c(Cl)c6)C5(C)C)cn4)C3)cc1)=NC(Cc1ncco1)c1nnc(C)n1-2` (some centres unmarked) [Compound I-491], the GI50 was > 3000 nM.
Still for that read-out and setting: with `Cc1sc2c(c1C)C(c1ccc([C@H]3C[C@@H]3CC3CCCN(c4ncc(C(=O)N[C@H]5C(C)(C)[C@H](Oc6ccc(C#N)c(Cl)c6)C5(C)C)cn4)C3)cc1)=N[C@@H](Cc1ncco1)c1nnc(C)n1-2` (some centres unmarked) [Compound I-492] the figure was > 3000 nM.
Compound `Cc1sc2c(c1C)C(c1ccc([C@H]3C[C@@H]3CC3CCCN(c4ncc(C(=O)N[C@H]5C(C)(C)[C@H](Oc6ccc(C#N)c(Cl)c6)C5(C)C)cn4)C3)cc1)=N[C@@H](Cc1ncco1)c1nnc(C)n1-2` (some centres unmarked) [Compound I-493] came in with a GI50 of 500 to 1500 nM.
On the same count and under the same terms, with `Cc1sc2c(c1C)C(c1ccc([C@H]3C[C@@H]3CC3CCCN(c4ncc(C(=O)N[C@H]5C(C)(C)[C@H](Oc6ccc(C#N)c(Cl)c6)C5(C)C)cn4)C3)cc1)=NC(Cc1ncco1)c1nnc(C)n1-2` (some centres unmarked) [Compound I-494] the figure was < 500 nM; with `Cc1sc2c(c1C)C(c1ccc([C@H]3C[C@@H]3CC3CCCN(c4ncc(C(=O)N[C@H]5C(C)(C)[C@H](Oc6ccc(C#N)c(Cl)c6)C5(C)C)cn4)C3)cc1)=NC(Cc1ncco1)c1nnc(C)n1-2` (some centres unmarked) [Compound I-495], < 500 nM.
Consider `Cc1sc2c(c1C)C(c1ccc([C@H]3C[C@@H]3CC3CCCN(c4ncc(C(=O)N[C@H]5C(C)(C)[C@H](Oc6ccc(C#N)c(Cl)c6)C5(C)C)cn4)C3)cc1)=NC(Cc1ncco1)c1nnc(C)n1-2` (some centres unmarked) [Compound I-496], for which the GI50 is < 500 nM.
Regarding `Cc1sc2c(c1C)C(c1ccc(-n3cnc(C4CCN(c5ncc(C(=O)N[C@H]6C(C)(C)[C@H](Oc7ccc(C#N)c(Cl)c7)C6(C)C)cn5)CC4)n3)cc1)=N[C@@H](Cc1ncco1)c1nnc(C)n1-2` [Compound I-497], under “Homo sapiens, T47D, 72 h”, the GI50 was < 500 nM.
On the same count and under the same terms, with `Cc1sc2c(c1C)C(c1ccc(N3CC4(CC(Cc5ncc(C(=O)N[C@H]6C(C)(C)[C@H](Oc7ccc(C#N)c(Cl)c7)C6(C)C)cn5)C4)C3)cc1)=N[C@@H](Cc1ncco1)c1nnc(C)n1-2` [Compound I-498] the figure was 500 to 1500 nM; with `Cc1sc2c(c1C)C(c1ccc(OCC3CC4(CCCN(c5ncc(C(=O)N[C@H]6C(C)(C)[C@H](Oc7ccc(C#N)c(Cl)c7)C6(C)C)cn5)C4)C3)cc1)=NC1(CC1)c1nnc(C)n1-2` [Compound I-499], > 3000 nM.
As for `Cc1sc2c(c1C)C(c1ccc(OCC3CC4(CCCN(c5ncc(C(=O)N[C@H]6C(C)(C)[C@H](Oc7ccc(C#N)c(Cl)c7)C6(C)C)cn5)C4)C3)cc1)=NC1(CC1)c1nnc(C)n1-2` [Compound I-500], the GI50 is > 3000 nM.
`Cc1sc2c(c1C)C(c1ccc(CCOC3CCN(c4ncc(C(=O)N[C@H]5C(C)(C)[C@H](Oc6ccc(C#N)c(Cl)c6)C5(C)C)cn4)CC3)cc1)=N[C@@H](C)c1nnc(C)n1-2` [Compound I-501] displayed a GI50 (Homo sapiens, T47D, 72 h) of 500 to 1500 nM.
Still for that read-out and setting: the figure for `Cc1sc2c(c1C)C(c1ccc(N3CC(CC4CCN(c5ccc(C(=O)N[C@H]6C(C)(C)[C@H](Oc7ccc(C#N)c(Cl)c7)C6(C)C)cn5)CC4)C3)cc1)=N[C@@H](C)c1nnc(C)n1-2` [Compound I-502] is < 500 nM.
Take `Cc1sc2c(c1C)C(c1ccc(C#CC3CCC(Cc4ncc(C(=O)N[C@H]5C(C)(C)[C@H](Oc6ccc(C#N)c(Cl)c6)C5(C)C)cn4)CC3)cc1)=N[C@@H](Cc1ncco1)c1nnc(C)n1-2` (some centres unmarked) [Compound I-505]: the GI50 was > 3000 nM.
`Cc1sc2c(c1C)C(c1ccc(C#CC3CCC(Cc4ncc(C(=O)N[C@H]5C(C)(C)[C@H](Oc6ccc(C#N)c(Cl)c6)C5(C)C)cn4)CC3)cc1)=N[C@@H](Cc1ncco1)c1nnc(C)n1-2` (some centres unmarked) [Compound I-506] gave a GI50 of 500 to 1500 nM.
For `Cc1sc2c(c1C)C(c1ccc(CC3CC4(CCN(c5ccc(C(=O)N[C@H]6C(C)(C)[C@H](Oc7ccc(C#N)c(Cl)c7)C6(C)C)cn5)CC4)C3)cc1)=NC1(CC1)c1nnc(C)n1-2` [Compound I-507], for the setting “Homo sapiens, T47D, 72 h”, the GI50 is < 500 nM.
The compound `Cc1sc2c(c1C)C(c1ccc(C3CC(CC4CCN(c5ncc(C(=O)N[C@H]6C(C)(C)[C@H](Oc7ccc(C#N)c(Cl)c7)C6(C)C)cn5)CC4)C3)cc1)=NC(C)c1nnc(C)n1-2` (some centres unmarked) [Compound I-508] registered a GI50 of 500 to 1500 nM.
On the same count and under the same terms, with `Cc1sc2c(c1C)C(c1ccc(C3CC(CC4CCN(c5ncc(C(=O)N[C@H]6C(C)(C)[C@H](Oc7ccc(C#N)c(Cl)c7)C6(C)C)cn5)CC4)C3)cc1)=NC(C)c1nnc(C)n1-2` (some centres unmarked) [Compound I-509] the figure was < 500 nM; with `Cc1sc2c(c1C)C(c1ccc(C3CC(CC4CCN(c5ncc(C(=O)N[C@H]6C(C)(C)[C@H](Oc7ccc(C#N)c(Cl)c7)C6(C)C)cn5)CC4)C3)cc1)=NC(C)c1nnc(C)n1-2` (some centres unmarked) [Compound I-510], > 3000 nM; with `Cc1sc2c(c1C)C(c1ccc(C3CC(CC4CCN(c5ncc(C(=O)N[C@H]6C(C)(C)[C@H](Oc7ccc(C#N)c(Cl)c7)C6(C)C)cn5)CC4)C3)cc1)=NC(C)c1nnc(C)n1-2` (some centres unmarked) [Compound I-511], > 3000 nM.
With `Cc1sc2c(c1C)C(c1ccc(CC3CC(CC4CCN(c5ncc(C(=O)N[C@H]6C(C)(C)[C@H](Oc7ccc(C#N)c(Cl)c7)C6(C)C)cn5)CC4)C3)cc1)=N[C@@H](C)c1nnc(C)n1-2` (some centres unmarked) [Compound I-512], under “Homo sapiens, T47D, 72 h”, the GI50 was < 500 nM.
For the compound `Cc1sc2c(c1C)C(c1ccc(CC3CC(CC4CCN(c5ncc(C(=O)N[C@H]6C(C)(C)[C@H](Oc7ccc(C#N)c(Cl)c7)C6(C)C)cn5)CC4)C3)cc1)=N[C@@H](C)c1nnc(C)n1-2` (some centres unmarked) [Compound I-513], the GI50 is < 500 nM.
For the compound `Cc1sc2c(c1C)C(c1ccc(N3CC(CC4CN(c5ccc(C(=O)N[C@H]6C(C)(C)[C@H](Oc7ccc(C#N)c(Cl)c7)C6(C)C)nc5)C4)C3)cc1)=N[C@@H](C)c1nnc(C)n1-2` [Compound I-515], the concentration for 50% growth inhibition (GI50) (Homo sapiens, T47D, 72 h) was < 500 nM.
On the same count and under the same terms, the figure for `Cc1sc2c(c1C)C(c1ccc(N3CC4(C3)CN(c3ncc(C(=O)N[C@H]5C(C)(C)[C@H](Oc6ccc(C#N)c(Cl)c6)C5(C)C)cn3)C4)cc1)=N[C@@H](C)c1nnc(C)n1-2` [Compound I-516] is 1500 to 3000 nM; for `Cc1sc2c(c1C)C(c1ccc(N3CC4(C3)CN(c3cnc(C(=O)N[C@H]5C(C)(C)[C@H](Oc6ccc(C#N)c(Cl)c6)C5(C)C)cn3)C4)cc1)=N[C@@H](C)c1nnc(C)n1-2` [Compound I-517] it is 1500 to 3000 nM.
